Data: patent publication US11273161B2, “Methods of treating autism spectrum disorders” (The Broad Institute, Inc., priority 2016, dated 2022)

Tests used:
ADSS [1] = experiment: Western blot of ADSS protein levels in neurons after proteasome or Cullin inhibition; format: cell-based, mouse; conditions: neurons from Kctd13Δ47 mice, treated 5 hours with 2 μM, FIG. 5
Description: Protein lysates were generated from mouse neurons prepared from wildtype or Kctd13Δ47 mice. C57B6 timed pregnant females were euthanized following IACUC approved method. E18 embryos were collected and rapidly decapitated. Embryos were then washed in dissection media (Hibernate-E (Hib-E, Gibco) supplemented with 100 U/mL penicillin streptomycin (Pen/Strep, Gibco)). Brains were isolated, cortices were separated from the midbrain and meninges was removed from each cortex. Each cortex was cut into six pieces; five cortices were pooled for dissociation. To dissociate 5 cortices, one Papain kit (Worthington LK3176) was reconstituted in 5 mLs Hib-E and activated at 37° C. for 10 minutes. Following activation, DNAse I (Sigma) was added to a concentration of 10 μg/mL and filter sterilized using a 0.22 μm filter. Cortices were washed twice with 5 mLs of Hib-E and 5 mLs of activated papain/DNAseI was added to the cortices and incubated for 8 minutes at 37° C. Following digestion, cortices were washed three times with 10 ml Hib-E per wash. Cortices were then triturated 10-15 times with a P1000 pipette in 1 mL NBActive4 supplemented with 10 μg/mL DNAseI filter sterilized using a 0.22 μm filter. […] Cells were counted in a hemocytometer, diluted and plated at 1 million cells/well in a 6 well poly-D-lysine (Corning, Biocoat) or 6 million cells/10 cm poly-D-lysine plate (Corning, Biocoat). […]

ADSS [2] = biological target: T1, ADSS (Mus musculus, UniProt P46664); experiment: Dose-response of IMP levels in cell lysates of DIV21 neurons from WT mice; format: cell-based; conditions: FIG. 20
T1 construct: endogenous in cells; host or cells: primary mouse neurons, DIV21 (WT in A3; WT and Kctd13Δ47 in A4)
Experimental: FIGS. 20A-B show IMP levels in cell lysates of DIV21 neurons from WT mice following treatment with D, L-alanosine or L-alanosine, or untreated (U).
16p11.2 deletion patient fibroblast samples were acquired from the Simons Foundation VIP collection. For comparison, fibroblasts from unaffected individuals were obtained from Mclean Hospital collection of primary fibroblasts (Cohen, Ongur, McPhee). Fibroblasts were grown in DMEM supplemented with 10% serum (Gibco). For metabolic experiments, 160,000 cells/well were plated in DMEM (Gibco) supplemented with 10% fetal bovine serum (Gibco) in 12 well plates. […]
Next, metabolic changes were determined between 16p11.2 deletion patient fibroblasts compared with control fibroblasts. […]
(§1) Raw data were processed using MultiQuant 1.2 software (AB SCIEX) for automated LC-MS peak integration. […] Internal standard peak areas were monitored for quality control, to assess system performance over time, and to identify any outlier samples requiring re-analysis. A pooled plasma reference sample was also analyzed after sets of 20 study samples as an additional quality control measure of analytical performance and to serve as reference for scaling raw LC-MS peak areas across sample batches. […]
Next, purine metabolites were assessed in cell lysates and supernatants of cultured neurons from wild-type and kctd13Δ47 mice. […]

ADSS [3] = biological target: T1, ADSS; experiment: S-Ado levels in cultured neurons from kctd13Δ47 mice contacted with L-alanosine; format: cell-based; conditions: increasing concentrations (0, 0.01, 0.1 μM), FIG. 22
Experimental: (§2) 16p11.2 deletion patient fibroblast samples were acquired from the Simons Foundation VIP collection. For comparison, fibroblasts from unaffected individuals were obtained from Mclean Hospital collection of primary fibroblasts (Cohen, Ongur, McPhee). Fibroblasts were grown in DMEM supplemented with 10% serum (Gibco). For metabolic experiments, 160,000 cells/well were plated in DMEM (Gibco) supplemented with 10% fetal bovine serum (Gibco) in 12 well plates. For neurons, 1 million primary mouse neurons/well were plated in 6 well plates and were extracted similar to fibroblasts as described below except volumes were doubled to accommodate the extra surface area.
Next, metabolic changes were determined between 16p11.2 deletion patient fibroblasts compared with control fibroblasts. For metabolite extraction, samples were collected from either cells or the cell media. […]
as §1

ADSS [4] = biological target: T2, ADSS (Homo sapiens, UniProt P30520); experiment: LC-MS purine metabolite levels in human control fibroblast cell lysates after ADSS inhibition; format: cell-based; conditions: human control fibroblasts, 12 hours, 10 mg/mL, FIG. 19
T2 construct: fibroblasts from unaffected individuals were obtained from Mclean Hospital collection of primary fibroblasts; endogenous in cells; host or cells: primary human control fibroblasts (McLean Hospital collection)
Experimental: as §2
Next, metabolic changes were determined between 16p11.2 deletion patient fibroblasts compared with control fibroblasts. For metabolite extraction, samples were collected from either cells or the cell media. Cell samples were extracted from cells grown in 12 well plates. Cell samples were extracted by washing cells once with 1 mL ice-cold PBS, transferring to dry ice, followed by adding 400 μL of 80% methanol (VWR) containing the internal standards inosine-^15N4, thymine-d4, and glycocholate-d4 (Cambridge Isotope Laboratories). Cells were then incubated for 15 minutes at −80° C., followed by scraping and transfer of the methanol and cells to a 1.5 mL tube. Cells were centrifuged (10 min, 9,000 g, 4° C.), and the supernatant was transferred to a new 1.5 mL tube. The pellet was extracted again with 50 μL of 80% methanol containing internal standards and centrifuged. The supernatant was then pooled with the previously collected methanol sample. Media supernatant samples (30 μL) were extracted using 120 μL of 80% methanol (VWR) containing the internal standards inosine-^15N4, thymine-d4, and glycocholate-d4 (Cambridge Isotope Laboratories). The samples were centrifuged (10 min, 9,000 g, 4° C.). The resulting supernatant was transferred to a new tube. Samples were stored at −80° C. until analysis.
A method using basic hydrophilic interaction chromatography (HILIC) separation and negative ionization mode MS detection was established on an LC-MS system consisting of an ACQUITY UPLC (Waters Inc.) coupled to a 5500 QTRAP triple quadrupole mass spectrometer (AB SCIEX). […]
as §1

T1 sequence (P46664 whole entry): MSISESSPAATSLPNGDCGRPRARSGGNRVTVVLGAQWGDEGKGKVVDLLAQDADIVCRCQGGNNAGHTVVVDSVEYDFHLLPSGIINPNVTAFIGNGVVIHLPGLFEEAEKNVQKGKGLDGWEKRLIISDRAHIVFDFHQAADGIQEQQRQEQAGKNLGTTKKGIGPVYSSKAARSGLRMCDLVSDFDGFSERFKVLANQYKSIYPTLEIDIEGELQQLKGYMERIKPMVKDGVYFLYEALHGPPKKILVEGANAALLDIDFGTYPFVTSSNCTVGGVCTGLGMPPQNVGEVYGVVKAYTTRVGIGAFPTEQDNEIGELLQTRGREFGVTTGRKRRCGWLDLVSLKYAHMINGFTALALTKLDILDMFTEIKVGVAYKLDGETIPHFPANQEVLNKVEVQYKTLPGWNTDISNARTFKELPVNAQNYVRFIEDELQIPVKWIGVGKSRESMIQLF
T2 sequence (P30520 whole entry): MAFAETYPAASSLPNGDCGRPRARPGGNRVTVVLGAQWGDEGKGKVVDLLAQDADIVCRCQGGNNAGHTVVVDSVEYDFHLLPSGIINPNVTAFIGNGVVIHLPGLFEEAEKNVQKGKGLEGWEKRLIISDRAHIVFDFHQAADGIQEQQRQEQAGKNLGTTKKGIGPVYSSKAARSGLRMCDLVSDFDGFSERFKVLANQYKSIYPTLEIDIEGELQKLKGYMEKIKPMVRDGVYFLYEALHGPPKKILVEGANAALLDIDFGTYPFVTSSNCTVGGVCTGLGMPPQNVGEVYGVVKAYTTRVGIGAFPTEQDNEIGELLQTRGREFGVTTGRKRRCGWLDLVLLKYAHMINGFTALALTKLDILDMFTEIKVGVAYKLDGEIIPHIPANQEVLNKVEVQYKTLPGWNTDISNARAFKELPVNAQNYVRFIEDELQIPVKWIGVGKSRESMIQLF

CC(C)C[C@H](NC(=O)[C@H](Cc1ccccc1)NC(=O)c1cnccn1)B(O)O [bortezomib]
change in ADSS levels (ADSS [1]): no change

NS(=O)(=O)OC[C@@H]1C[C@@H](n2ccc3c(N[C@H]4CCc5ccccc54)ncnc32)C[C@@H]1O [MLN4924]
change in ADSS levels (ADSS [1]): no change

NC(CN(O)N=O)C(=O)O (racemic) [D,L-alanosine, 3-(Hydroxynitrosoamino)-D,L-alanine]
IMP levels (ADSS [2]): dose-dependent increase

N[C@@H](CN(O)N=O)C(=O)O [L-alanosine, L-2-amino-3-(N-hydroxy-N-nitrosamino) propionic acid]
IMP levels (ADSS [2]): dose-dependent increase
S-Ado levels (ADSS [3]): decreased
levels of ADP (ADSS [4]): decreased
levels of AMP (ADSS [4]): decreased
levels of IMP (ADSS [4]): increased
levels of aminoimidazole carboxamide ribotide (AICAR) (ADSS [4]; metabolite upstream of ADSS): not affected
